Measurements reported in US12234258B2, “Timosaponin compounds” (priority 2012, dated 2025).
Read-outs that look alike come from different tables or passages of the source.

Key:
[1] = test system: Aβ1-42 production in SweAPP N2A cells (N2A-APPswe); assay: Aβ1-42 ELISA of conditioned medium of SweAPP N2A cells; type: cell-based
Description: Neuro-2A cells expressing Swedish mutants of (“SweAPP N2A cells”) was cultured in minimal essential medium with glutamine (2 mM), pyruvate (2 mM) and fetal bovine serum (10%). Cells were seeded at 6-well plate at 1×10^6 cells/mL and grown overnight. The medium was replaced.
Conditioned medium was diluted with 2 part volume of ELISA diluents. Aβ1-42 concentrations were determined by using human Aβ1-42 ultrasensitive ELISA kit (manufactured by Invitrogen).

SweAPP N2A cells = assay: Cell viability of SweAPP N2A cells; type: cell-based; conditions: at concentrations that significantly inhibited Aβ production
Description: Cells were treated with timosaponins or other test compounds, and the conditioned medium was collected and subjected to measurement of secreted Aβ and N-terminal secreted APP (sAPPα and sAPPβ) by ELISA using specific antibodies pair targeting to respective fragments. Lysates from cells treated with timosaponins were subjected to immunoblot analysis using antibodies against c-terminal of APP to detect the full length APP, α-CTF and β-CTF. Cell viability and cytotoxicity are examined by MTT and LDH release assays, respectively. Cell culture: Neuro-2A cells expressing Swedish mutants of APP (N2A-APPswe) ENREF 12 was cultured in minimal essential medium with 2 mM glutamine, 2 mM pyruvate and 10% fetal bovine serum. Cells were seeded at 6-well plate at 1×10^6 cells/mL and grown for two days until confluence. The medium was replaced and the test compounds were added at indicated concentrations for 24 hr. Cell viability was measured by standard MTT assays.

[2] = test system: APP processing (FL APP, β-CTF, secreted Aβ) in SweAPP N2A cells; assay: Immunoblot analysis of APP processing in SweAPP N2A cells; type: cell-based; conditions: treated SweAPP N2A cells
Description: Cells obtained from Example 5 were washed with phosphate buffered saline and lysed with buffer containing Tris-Cl (50 mM, pH 7.4), NaCl ([…]), TRITON™ X-100 (1%) supplemented with protease inhibitors. Equal amount of proteins (30 μg) was resolved by 16.5% Tris-tricine gels and then transferred to nitrocellulose membrane with 0.2 µm pore size. For detection of secreted Aβ, 50 μL of the conditioned medium was mixed with sodium dodecyl sulfate (“SDS”) sample buffer and resolved accordingly. The membrane was blocked with Tris-buffered saline containing TWEEN™20 (0.1%) and bovine serum albumin (“BSA”) (3%) and then incubated with primary antibodies at 4° C. overnight, followed with appropriate secondary antibodies for 2 hours. The primary antibodies used included rabbit APP c-terminal antibody with 1:5000 dilution (obtained from Merck Bioscience) for detection of full length (“FL”) and CTFs, and mouse monoclonal 6E10 (obtained from Covance) for detection of secreted Aβ. The immunoreactivities were detected using enhanced chemiluminescence reagents (manufactured by GE Health care).
Immunoblot analysis: Cells were washed with phosphate buffered saline and lysed with buffer containing 50 mM Tris-Cl, pH 7.4, 150 mM NaCl, 1% Triton X-100 supplemented with protease inhibitors. Equal amount of proteins (30 μg) was resolved by 16.5% Tris-tricine gels and then transferred to nitrocellulose membrane with 0.2 µm pore size. For detection of secreted Aβ, sAPPα and sAPPβ, cells were treated with the timosaponins for 8 hr in complete medium which were then replaced with medium containing 0.1% FBS. After further incubation of 16 hr, 50 μL of the conditioned medium was mixed with SDS sample buffer and resolved accordingly. The membrane was blocked with Tris-buffered saline containing 0.1% TWEEN® 20 and 3% BSA and then incubated with primary antibodies at 4° C. overnight, followed with appropriate secondary antibodies for 2 hr. […] The immunoreactivities were detected using enhanced chemiluminescence reagents (GE Health care). […]

[3] = biological target: T1, BACE activity in cell lysates (Mus musculus, UniProt P56818); assay: BACE (β-secretase) activity in cell lysates; type: biochemical; conditions: cells treated with compound
T1 construct: endogenous in cells; host or cells: N2A-APPswe (Neuro-2A cells expressing Swedish mutant APP)
T1 sequence (P56818 46-501): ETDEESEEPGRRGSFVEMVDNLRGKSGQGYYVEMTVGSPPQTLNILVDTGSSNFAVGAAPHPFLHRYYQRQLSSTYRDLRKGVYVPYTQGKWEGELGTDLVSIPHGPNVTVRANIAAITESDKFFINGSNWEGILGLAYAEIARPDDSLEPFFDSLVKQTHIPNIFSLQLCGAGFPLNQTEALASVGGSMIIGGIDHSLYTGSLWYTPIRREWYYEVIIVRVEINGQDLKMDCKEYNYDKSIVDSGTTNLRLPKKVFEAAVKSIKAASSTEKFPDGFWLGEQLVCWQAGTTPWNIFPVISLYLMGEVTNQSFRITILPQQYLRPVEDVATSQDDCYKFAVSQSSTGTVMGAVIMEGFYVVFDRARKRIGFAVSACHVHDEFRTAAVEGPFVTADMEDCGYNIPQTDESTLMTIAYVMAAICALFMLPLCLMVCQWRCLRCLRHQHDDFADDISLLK
Description: (§1) β-Secretase assays: Confluent N2A-APPswe cells were harvested and homogenized with 50 mM MES, pH 5.5. Protein extracts (10 μg) were incubated with TAIII for 1 hr at room temperature. The β-secretase activities were assayed by adding 10 μM fluorogenic β-secretase substrate (Millipore) to the reaction mixtures and fluorescence signals (excitation, 380 nm; emission, 460 nm) were measured. β-Secretase assays were also performed using purified BACE1 (Millipore) at 100 ng in a buffer of 50 mM MES, pH 5.5.

purified BACE1 enzyme = biological target: T2, purified BACE1 enzyme (Homo sapiens, UniProt P56817); assay: Purified BACE1 enzyme activity; type: biochemical; conditions: up to 100 μM
T2 construct: purchased Millipore
T2 sequence (P56817 46-501, species assumed): as the sequence (P56818 46-501) above, with S6P, I162V, I165L, T180S, A182V, V340I, A393L, H443Q counted along it
Description: as §1

Neuro-2A cells = assay: Neurite outgrowth of N2A cells; type: cell-based
Description: Immunofluorescence examination of neurite outgrowth: Neuro-2A cells were seeded at 1×10^5 cells per glass bottom dish. After treatment, cells were fixed with 4% paraformaldyde for 10 min, permeabilized with 0.1% Trition X-100, and then blocked with 1% BSA in PBS. The cells were incubated with monoclonal antibody raised against type III β-tubulin (Sigma) for 1 hr followed by Alexa488 conjugated secondary antibody. Neurite morphology was examined under fluorescence microscope.

[4] = test system: SH-SY5Y neuronal cells transfected with mRFP-LC3; assay: Colocalization of exogenous labeled Aβ1-42 with mRFP-LC3 autophagic compartments; type: cell-based, Human; conditions: 5 μM, 16 hours
[5] = test system: HeLa, human cervical carcinoma cells; assay: Growth of cancer cell lines: HeLa; type: cell-based; conditions: mean ± S.D., n = 3; read-out: IC50 against growth of HeLa
[6] = test system: NCI-H460, human non-small lung carcinoma cells; assay: Growth of cancer cell lines: NCI-H460; type: cell-based; conditions: mean ± S.D., n = 3; read-out: IC50 against growth of NCI-H460
[7] = test system: HepG2, human hepatoma cells; assay: Growth of cancer cell lines: HepG2; type: cell-based; conditions: mean ± S.D., n = 3; read-out: IC50 against growth of HepG2
[8] = test system: SW480, human colon adenocarcinoma cells; assay: Growth of cancer cell lines: SW480; type: cell-based; conditions: mean ± S.D., n = 3; read-out: IC50 against growth of SW480
[9] = test system: Aβ42, Aβ40 and Aβ38 in N2A-APPswe cells; assay: Aβ42, Aβ40 and Aβ38 profiles in conditioned medium by ELISA; type: cell-based; conditions: FIG. 18, 18 hr
Description: Aβ ELISA: Aβ concentrations in conditioned medium were assayed using ELISA kits for human Aβ40, human Aβ42 (ultrasensitive) (Invitrogen) and Aβ38 (MyBioSource).
Cells were treated with various concentrations of (TAIII/TAI/AA/TAV) and DMSO vehicle (C) for 18 hr. In part A of FIG. 18, the expression of full length (FL) and CTF (c99 and c83) in cell lysates and secreted APP (sAPPα and sAPPP) in the conditioned medium were examined by immunoblot using methods specified in Example 6. In part B of FIG. 18, the profiles of Aβ42, Aβ40 and Aβ38 in the conditioned medium were determined by ELISA using methods specified in Example 5.

With `C[C@H]1CC[C@@]2(OC1)O[C@H]1C[C@H]3[C@@H]4CC[C@@H]5C[C@@H](O[C@@H]6O[C@H](CO)[C@H](O)[C@H](O)[C@H]6O[C@@H]6O[C@H](CO)[C@@H](O)[C@H](O)[C@H]6O)CC[C@]5(C)[C@H]4CC[C@]3(C)[C@H]1[C@@H]2C` [Timosaponin AIII] the IC50 ([1]; Example 5, SweAPP N2A cells, 18 hours, ELISA, read-out: IC50, reduction of Aβ1-42 peptide secretion) was 2 µM, the IC50 ([1]; Example 9, SweAPP N2A cells, Aβ1-42 ELISA, read-out: ICS50, inhibitor of Aβ production) was 2.5 µM and the IC50 ([1]; Table 4, N2A-APPswe cells, mean ± S.D, n ≥ 3, read-out: IC50 in lowering Aβ42 production) was 2.3 ± 0.2 µM. For the same compound, the Cell viability (SweAPP N2A cells) was “did not affect the cell viability”, the “Aβ immunoreactivities in the conditioned medium” value [2] was “concomitant decrease” and the “FL APP expression” value [2] was “without significant changes”. The “Intracellular APP β-CTF expression” value [2] was “significantly decreased”, the “BACE activity in cell lysates” value [3] was “no change” and the “Activity of purified BACE1 enzyme” value (purified BACE1 enzyme) was “not affected”. For the same compound, the Neurite outgrowth (Neuro-2A cells; Example 8, 5 μM, 18 hours, N2A cells) was “significant extension and branching neuritis”, the Neurite outgrowth (Neuro-2A cells; FIG. 19, TAIII 5 μM, TAI 10 μM, SSG 25 μM, 18 hr, type III β-tubulin staining) was “significant extension and branching of neurites” and the “Colocalization of fluorophore labeled Aβ1-42 with mRFP-LC3 associated autophagic compartments” value [4] was “significantly colocalized”. It also gave an IC50 [5] of 7.47 ± 2.39 µM, an IC50 [6] of 6.9 ± 0.31 µM and an IC50 [7] of 7.28 ± 0.56 µM. For the same compound, the IC50 [8] was 12.2 ± 0.28 µM and the “Aβ profile (Aβ42 vs Aβ40 and Aβ38)” value [9] was “preferentially lower Aβ42 production”.
